Measurements as given in ChEMBL document CHEMBL1201862, “PubChem BioAssay data set” (2004).
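Where inhibition never reached the appropriate level, the endpoint shown equals the highest concentration tested. Otherwise, values were interpolated linearly from a five-concentration, 48-hour dose response in 96-well plates. Abbreviation: GI50, concentration required for 50% inhibition of growth.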 The source made the active and inactive calls. Cut-off read from the data, not from the text of the source: active = GI50 up to about 1.1 µM and inactive = higher.

Assays:
Test in all cases: NCI anticancer screen, dose series, 48 h
SN12C = system: SN12C
OVCAR-4 = system: OVCAR-4
NCI/ADR-RES = system: NCI/ADR-RES
COLO 205 = system: COLO 205
UACC-257 = system: UACC-257
SK-OV-3 = system: SK-OV-3
SNB-19 = system: SNB-19
TK-10 = system: TK-10
EKVX = system: EKVX
CAKI-1 = system: CAKI-1
HCT-15 = system: HCT-15
MDA-MB-435 = system: MDA-MB-435
UACC-62 = system: UACC-62
SNB-75 = system: SNB-75
T47D = system: T47D
SK-MEL-28 = system: SK-MEL-28
SF-268 = system: SF-268
HT-29 = system: HT-29
A498 = system: A498
CCRF-CEM = system: CCRF-CEM
HOP-62 = system: HOP-62
K562 = system: K562
A549 = system: A549
NCI-H226 = system: NCI-H226
NCI-H522 = system: NCI-H522
IGROV-1 = system: IGROV-1
MDA-N = system: MDA-N
U-251 = system: U-251
LOX IMVI = system: LOX IMVI
MCF7 = system: MCF7
HCT-116 = system: HCT-116
SF-295 = system: SF-295
NCI-H460 = system: NCI-H460
HOP-92 = system: HOP-92
MDA-MB-231 = system: MDA-MB-231
BT-549 = system: BT-549
RXF 393 = system: RXF 393
SF-539 = system: SF-539
NCI-H23 = system: NCI-H23
PC-3 = system: PC-3
Malme-3M = system: Malme-3M
M14 = system: M14
SK-MEL-5 = system: SK-MEL-5
786-0 = system: 786-0
SW-620 = system: SW-620
HCC 2998 = system: HCC 2998
KM12 = system: KM12
HL-60 = system: HL-60
RPMI-8226 = system: RPMI-8226
OVCAR-8 = system: OVCAR-8
DU-145 = system: DU-145
Hs-578T = system: Hs-578T
MOLT-4 = system: MOLT-4
ACHN = system: ACHN
SR = system: SR
SK-MEL-2 = system: SK-MEL-2
OVCAR-3 = system: OVCAR-3
OVCAR-5 = system: OVCAR-5
UO-31 = system: UO-31

Compound: C[C@H](Nc1nc(N)c(N=O)c(=O)n1C)C(=O)O
- GI50 (SN12C): > 10 µM (inactive)
- GI50 (OVCAR-4): > 10 µM (inactive)
- GI50 (NCI/ADR-RES): > 10 µM (inactive)
- GI50 (COLO 205): > 10 µM (inactive)
- GI50 (UACC-257): > 10 µM (inactive)
- GI50 (SK-OV-3): > 10 µM (inactive)
- GI50 (SNB-19): > 10 µM (inactive)
- GI50 (TK-10): > 10 µM (inactive)
- GI50 (EKVX): > 10 µM (inactive)
- GI50 (CAKI-1): > 10 µM (inactive)
- GI50 (HCT-15): > 10 µM
- GI50 (MDA-MB-435): > 10 µM (inactive)
- GI50 (UACC-62): > 10 µM (inactive)
- GI50 (SNB-75): > 10 µM (inactive)
- GI50 (T47D): > 10 µM (inactive)
- GI50 (SK-MEL-28): > 10 µM (inactive)
- GI50 (SF-268): > 10 µM (inactive)
- GI50 (HT-29): > 10 µM (inactive)
- GI50 (A498): > 10 µM (inactive)
- GI50 (CCRF-CEM): > 10 µM (inactive)
- GI50 (HOP-62): > 10 µM (inactive)
- GI50 (K562): > 10 µM (inactive)
- GI50 (A549): > 10 µM (inactive)
- GI50 (NCI-H226): > 10 µM (inactive)
- GI50 (NCI-H522): > 10 µM (inactive)
- GI50 (IGROV-1): > 10 µM (inactive)
- GI50 (MDA-N): > 10 µM (inactive)
- GI50 (U-251): > 10 µM (inactive)
- GI50 (LOX IMVI): > 10 µM (inactive)
- GI50 (MCF7): > 10 µM (inactive)
- GI50 (HCT-116): > 10 µM (inactive)
- GI50 (SF-295): > 10 µM (inactive)
- GI50 (NCI-H460): > 10 µM (inactive)
- GI50 (HOP-92): > 10 µM (inactive)
- GI50 (MDA-MB-231): > 10 µM (inactive)
- GI50 (BT-549): > 10 µM (inactive)
- GI50 (RXF 393): > 10 µM (inactive)
- GI50 (SF-539): > 10 µM (inactive)
- GI50 (NCI-H23): > 10 µM (inactive)
- GI50 (PC-3): > 10 µM (inactive)
- GI50 (Malme-3M): > 10 µM (inactive)
- GI50 (M14): > 10 µM (inactive)
- GI50 (SK-MEL-5): > 10 µM (inactive)
- GI50 (786-0): > 10 µM (inactive)
- GI50 (SW-620): > 10 µM (inactive)
- GI50 (HCC 2998): > 10 µM (inactive)
- GI50 (KM12): > 10 µM (inactive)
- GI50 (HL-60): > 10 µM (inactive)
- GI50 (RPMI-8226): > 10 µM (inactive)
- GI50 (OVCAR-8): > 10 µM (inactive)
- GI50 (DU-145): > 10 µM (inactive)
- GI50 (Hs-578T): > 10 µM (inactive)
- GI50 (MOLT-4): > 10 µM (inactive)
- GI50 (ACHN): > 10 µM (inactive)
- GI50 (SR): > 10 µM (inactive)
- GI50 (SK-MEL-2): > 10 µM (inactive)
- GI50 (OVCAR-3): > 10 µM (inactive)
- GI50 (OVCAR-5): > 10 µM (inactive)

Compound: C=CCC1(C)CCCN(Cc2ccccc2)C1=O (stereo unspecified)
- GI50 (SN12C): > 10 µM (inactive)
- GI50 (OVCAR-4): > 10 µM (inactive)
- GI50 (NCI/ADR-RES): > 10 µM (inactive)
- GI50 (COLO 205): > 10 µM (inactive)
- GI50 (UACC-257): > 10 µM (inactive)
- GI50 (SK-OV-3): > 10 µM (inactive)
- GI50 (SNB-19): > 10 µM (inactive)
- GI50 (TK-10): > 10 µM (inactive)
- GI50 (EKVX): > 10 µM (inactive)
- GI50 (CAKI-1): > 10 µM (inactive)
- GI50 (HCT-15): > 10 µM
- GI50 (MDA-MB-435): > 10 µM (inactive)
- GI50 (UACC-62): > 10 µM (inactive)
- GI50 (T47D): > 10 µM (inactive)
- GI50 (SK-MEL-28): > 10 µM (inactive)
- GI50 (SF-268): > 10 µM (inactive)
- GI50 (HT-29): > 10 µM (inactive)
- GI50 (A498): 1.32 µM (inactive)
- GI50 (CCRF-CEM): > 10 µM (inactive)
- GI50 (HOP-62): > 10 µM (inactive)
- GI50 (K562): > 10 µM (inactive)
- GI50 (A549): > 10 µM (inactive)
- GI50 (NCI-H226): > 10 µM (inactive)
- GI50 (NCI-H522): > 10 µM (inactive)
- GI50 (IGROV-1): 0.863 µM (active)
- GI50 (MDA-N): > 10 µM (inactive)
- GI50 (U-251): > 10 µM (inactive)
- GI50 (LOX IMVI): > 10 µM (inactive)
- GI50 (MCF7): > 10 µM (inactive)
- GI50 (HCT-116): > 10 µM (inactive)
- GI50 (SF-295): > 10 µM (inactive)
- GI50 (NCI-H460): > 10 µM (inactive)
- GI50 (HOP-92): > 10 µM (inactive)
- GI50 (MDA-MB-231): > 10 µM (inactive)
- GI50 (BT-549): > 10 µM (inactive)
- GI50 (RXF 393): > 10 µM (inactive)
- GI50 (SF-539): > 10 µM (inactive)
- GI50 (NCI-H23): > 10 µM (inactive)
- GI50 (PC-3): > 10 µM (inactive)
- GI50 (Malme-3M): 0.0161 µM (active)
- GI50 (M14): > 10 µM (inactive)
- GI50 (SK-MEL-5): 0.41 µM (active)
- GI50 (786-0): > 10 µM (inactive)
- GI50 (SW-620): > 10 µM (inactive)
- GI50 (HCC 2998): > 10 µM (inactive)
- GI50 (KM12): > 10 µM (inactive)
- GI50 (HL-60): > 10 µM (inactive)
- GI50 (RPMI-8226): > 10 µM (inactive)
- GI50 (OVCAR-8): > 10 µM (inactive)
- GI50 (DU-145): > 10 µM (inactive)
- GI50 (Hs-578T): > 10 µM (inactive)
- GI50 (MOLT-4): > 10 µM (inactive)
- GI50 (UO-31): > 10 µM (inactive)
- GI50 (ACHN): > 10 µM (inactive)
- GI50 (SR): > 10 µM (inactive)
- GI50 (SK-MEL-2): > 10 µM (inactive)
- GI50 (OVCAR-3): > 10 µM (inactive)
- GI50 (OVCAR-5): > 10 µM (inactive)
